Results: PMC10657444, “Design and evaluation of tadpole-like conformational antimicrobial peptides” (Communications Biology, 2023)
Converted amounts (≈) assume the structure as drawn. “And” between values parts separate entries of the source, which are not always exact repeats. Equal values may be shown once. Read-outs that look alike come from different tables or passages of the source. Residues, ends and D or L forms follow the SMILES beside them.

How the values were obtained:
[1] = test system: MRSA 3393; type: cell-based, Staphylococcus aureus; settings: 3393
Excerpt: (§1) Bacteria were cultivated in Luria-Bertani (LB) broth.

[2] = test system: MRSA ATCC 43300; type: cell-based, Staphylococcus aureus; settings: ATCC 43300
Excerpt: as §1

[3] = test system: MRSA USA 300; type: cell-based, Staphylococcus aureus
Excerpt: as §1

[4] = test system: E. coli ATCC 25922; type: cell-based, Escherichia coli
Excerpt: as §1

[5] = test system: E. coli S; type: cell-based, Escherichia coli
Excerpt: as §1

[6] = test system: A. baumannii 1318; type: cell-based, Acinetobacter baumannii
Excerpt: as §1

[7] = test system: A. baumannii 1337; type: cell-based, Acinetobacter baumannii
Excerpt: as §1

[8] = test system: K. pneumoniae 3026; type: cell-based, Klebsiella pneumoniae
Excerpt: as §1

[9] = test system: K. pneumoniae ATCC 700603; type: cell-based, Klebsiella pneumoniae
Excerpt: as §1

[10] = MTT cytotoxicity assay; type: cell-based, human; settings: human
Procedure: (§2) To determine the cytotoxicity of the peptides, we used the MTT (3-(4,5)-dimethylthiahiazo (-z-y1)-3,5-di-phenytetrazoliumromide) dye reduction assay against HEK293T cells. In brief, the 100 μL of cells in 96-well plate were incubated for 24 h at 37 °C, 5% CO2, and then peptide solutions (concentrations ranging from 100 to 0.39 μM) were added and further incubated for 72 h. MTT solution (5 mg/mL) was added and further incubated for 4 h. After incubation, the precipitated MTT formazan crystal was dissolved by addition of dimethyl sulfoxide (DMSO). […]

[11] = test system: HEK293T cells; experiment: MTT cytotoxicity assay; type: cell-based, human; settings: for percent cell viability: HEK293T
Procedure: as §2

[12] = test system: sheep red blood cells; experiment: Hemolysis assay
Procedure: To evaluate the hemolysis effects of peptides, red blood hemolysis was performed as described with minimum modifications. Sterile defibrated sheep blood was purchased from Guangzhou Hongquan Biotechnology Co., LTD. Blood cells were adjusted to 2 × 10^9 cells/mL in phosphate-buffered saline (PBS, pH 7.4). In total, 98 μL sheep red blood cell suspension was incubated with 2 μL of peptides at different concentrations ranging from 3.13 to 100 µM. After incubation for 1 h at 37 °C, the cells were centrifuged and the absorbance of the supernatant was measured at 450 nm. The value for “zero hemolysis” was determined using sterile PBS, while 100% hemolysis was established using 1.5% (v/v) Triton X-100. Hemolysis of testing sample was calculated as the percentage of Triton X-100-induced hemolysis.

[13] = test system: all tested bacterial strains; settings: range over all strains
Excerpt: The bacterial strains used in this study included the Gram-positive bacteria methicillin resistant Staphylococcus aureus (MRSA) (MRSA ATCC 43300 and 2 clinically isolated strains presented as MRSA USA 300 and MRSA 3393), Gram-negative bacteria Escherichia coli (E. coli ATCC 25922, and 1 clinically isolated strain presented as E. coli S), Klebsiella pneumoniae (K. pneumoniae ATCC 700603, and 1 clinically isolated strain presented as K. pneumoniae 3026), and Acinetobacter baumannii (2 clinically isolated strains presented as A. baumannii 1318 and A. baumannii 1337). Bacteria were cultivated in Luria-Bertani (LB) broth.
The Clinical and Laboratory Standards Institute (CLSI)-defined broth microdilution testing method (M07, 11th edition, 2018) was used to determine MICs for peptides. Briefly, the concentrations of the peptides and ciprofloxacin in the assay wells ranged from 100 μM to 0.01 μM as a 11-point dose response plated as a 2-fold dilution series across the wells of the plate in duplicate for each independent biological replicate. Bacterial susceptibility assays were performed in Cation-Adjusted Mueller Hinton Broth (CAMHB), and using a final cell density of 5 × 10^6 CFU/mL for bacteria[36]. Final assay volumes were 100 μL per well with MICs determined by measuring absorbance at 595 nm with a microplate reader following 18–20 h incubation at 37 °C. […]

[14] = test system: MRSA; type: cell-based, Staphylococcus aureus; settings: range over the MRSA strains
Excerpt: as §1

[15] = test system: Gram-negative bacterial strains; type: cell-based; settings: range over the strains
Excerpt: as §1

[16] = HEK293T cells, OD450, cytotoxicity (Fig 2a), replicates

## CC[C@H](C)[C@H](NC(=O)[C@H](CCCNC(=N)N)NC(=O)[C@H](CCCNC(=N)N)NC(=O)[C@H](CC(C)C)NC(=O)[C@H](Cc1ccccc1)NC(=O)[C@@H](N)CCCNC(=N)N)C(=O)N[C@@H](Cc1ccccc1)C(=O)N[C@@H](CCCCN)C(=O)N[C@@H](Cc1ccccc1)C(=O)N[C@@H](Cc1ccccc1)C(=O)N[C@@H](Cc1ccccc1)C(N)=O [HT5] (H-RFLRRIFKFFF-NH2)
[1]
  MIC Gram+ MRSA 3393: 3.13 µM (≈ 4.93 µg/mL)
[2]
  MIC Gram+ MRSA ATCC 43300: 3.13 µM (≈ 4.93 µg/mL)
[3]
  MIC Gram+ MRSA USA 300: 3.13 µM (≈ 4.93 µg/mL)
[4]
  MIC Gram- E. coli ATCC 25922: 6.25 µM (≈ 9.85 µg/mL)
[5]
  MIC Gram- E. coli S: 6.25 µM (≈ 9.85 µg/mL)
[6]
  MIC Gram- A. b 1318: 3.13 µM (≈ 4.93 µg/mL)
[7]
  MIC Gram- A. b 1337: 3.13 µM (≈ 4.93 µg/mL)
[8]
  MIC Gram- K. p 3026: 12.5 µM (≈ 19.7 µg/mL)
[9]
  MIC Gram- K. p ATCC 700603: 12.5 µM (≈ 19.7 µg/mL)
[10]
  IC50 at 72 h: 2.3 µM
[10]; [16]
  viability at 72 h, 0.39 µM: 85.5%
  viability at 72 h, 0.78 µM: 79.4%
  viability at 72 h, 1.57 µM: 62.7%
  viability at 72 h, 3.13 µM: 21%
  viability at 72 h, 6.25 µM: 22.6%
  viability at 72 h, 12.5 µM: 8.57%
  viability at 72 h, 25 µM: 10.4%
[11]
  toxicity / cytotoxicity against HEK293T cells (in words): high toxicity
[12]; red cells of sheep, 1 h
  HC10 (concentration inducing 10% hemolysis): 12.5 µM
[13]
  MICs against all tested bacterial strains: 3.13 to 12.5 µM

## CC[C@H](C)[C@H](NC(=O)[C@H](CCCNC(=N)N)NC(=O)[C@H](CO)NC(=O)[C@H](CC(C)C)NC(=O)[C@H](Cc1ccccc1)NC(=O)[C@H](Cc1ccccc1)NC(=O)[C@@H](N)Cc1ccccc1)C(=O)N[C@@H](Cc1ccccc1)C(N)=O [SHf] (H-FFFLSRIF-NH2; N-terminus assumed)
[14]
  MICs against MRSA: 50 to 100 µM
[10]; HEK293T cells, HEK293T, 0.39 µM, read-out: OD450, cytotoxicity (Fig 2a), replicates
  viability at 72 h, 0.39 µM: 99%
[10]; HEK293T cells, HEK293T, 0.78 µM, read-out: OD450, cytotoxicity (Fig 2a), replicates
  viability at 72 h, 0.78 µM: 90.4%
[10]; HEK293T cells, HEK293T, 1.57 µM, read-out: OD450, cytotoxicity (Fig 2a), replicates
  viability at 72 h, 1.57 µM: 97.8%
[10]; HEK293T cells, HEK293T, 3.13 µM, read-out: OD450, cytotoxicity (Fig 2a), replicates
  viability at 72 h, 3.13 µM: 100%
[10]; HEK293T cells, HEK293T, 6.25 µM, read-out: OD450, cytotoxicity (Fig 2a), replicates
  viability at 72 h, 6.25 µM: 92.7%
[10]; HEK293T cells, HEK293T, 12.5 µM, read-out: OD450, cytotoxicity (Fig 2a), replicates
  viability at 72 h, 12.5 µM: 93.4%
[10]; HEK293T cells, HEK293T, 25 µM, read-out: OD450, cytotoxicity (Fig 2a), replicates
  viability at 72 h, 25 µM: 94.9%
[10]; HEK293T cells, HEK293T, 50 µM, read-out: OD450, cytotoxicity (Fig 2a), replicates
  viability at 72 h, 50 µM: 92.3%
[10]; HEK293T cells, HEK293T, 100 µM, read-out: OD450, cytotoxicity (Fig 2a), replicates
  viability at 72 h, 100 µM: 27.1%
[10]; HEK293T, MTT, 72 h, read-out: IC50, mammalian cell cytotoxicity
  IC50 at 72 h: 59 µM
[11]; 0.39 µM
  percent cell viability: 94.1313 and 97.2791
[11]; 0.78 µM
  percent cell viability: 95.9839 and 98.206
[11]; 1.57 µM
  percent cell viability: 94.1313 and 96.7238
[11]; 3.13 µM
  percent cell viability: 98.2056
[11]; 6.25 µM
  percent cell viability: 98.9467 and 92.2795
[11]; 12.5 µM
  percent cell viability: 99.6874 and 99.3163
[11]; 25 µM
  percent cell viability: 98.9463 and 99.3171
[11]; 50 µM
  percent cell viability: 91.54 and 92.6507
[11]; 100 µM
  percent cell viability: 21.5425 and 18.5796
[12]; 3.13 µM
  OD450, hemolysis (Fig 2b), replicates: 0.01725 and 0.01686 and 0.01568 and 0.01738 and 0.01699 and 0.0158
[12]; 6.25 µM
  OD450, hemolysis (Fig 2b), replicates: 0.01882 and 0.01529 and 0.01725 and 0.01896 and 0.01541 and 0.01738
[12]; 12.5 µM
  OD450, hemolysis (Fig 2b), replicates: 0.01725 and 0.01803 and 0.01764 and 0.01738 and 0.01817 and 0.01777
[12]; 25 µM
  OD450, hemolysis (Fig 2b), replicates: 0.01921 (2×) and 0.01764 and 0.01936 (2×) and 0.01777
[12]; 50 µM
  OD450, hemolysis (Fig 2b), replicates: 0.02038 and 0.02156 and 0.01921 and 0.02054 and 0.02173 and 0.01936
[12]; 100 µM
  OD450, hemolysis (Fig 2b), replicates: 0.01999 and 0.02234 and 0.02195 and 0.02014 and 0.02252 and 0.02212
[12]; sheep red blood cells, 3.13–100 μM
  hemolytic activity (in words): did not present hemolytic activity
[12]; sheep red blood cells, 1 h at 37 °C
  HC10 (concentration inducing 10% hemolysis): > 100.0 µM
[15]
  MICs against the tested Gram-negative bacterial strains: > 100 µM
